In publication PMC11247118 (CPT: Pharmacometrics & Systems Pharmacology, 2024):
Where two headings read alike, the source gives them in different places.

How the values were obtained:
[1] = cited from earlier work
[2] = system: Gram-positive bacteria / MRSA; conditions: cited from earlier work
[3] = Therapeutic drug monitoring of serum vancomycin concentrations; conditions: serum TDM samples, SD
[4] = Population pharmacokinetic model; conditions: for CLp, typical value of apparent clearance / Vp, typical value of apparent volume of distribution: estimate (% standard error), SEM
[5] = system: Gram-positive bacteria; conditions: 29 of 180 cases with Gram-positive isolates detected
[6] = cited from earlier work; remark: listed apart in the source
[7] = system: Patient bacterial isolates (Gram-positive); experiment: MIC of vancomycin for patient bacterial isolates; format: cell-based; conditions: majority of clinical isolates of the two study institutions, broth microdilution
[8] = bootstrap of final model, 996/1000 runs successful

Vancomycin concentration, mean ± standard deviation ([3]; model validation dataset N = 67, 76 concentrations): 6.89 ± 2.63 mg/L
Vancomycin concentration, mean ± standard deviation ([3]; model-building dataset N1 = 210, 272 concentrations): 8.7 ± 6.0 mg/L
Vancomycin concentration, mean ± standard deviation ([3]; model-building dataset N2 = 176, 249 concentrations): 8.27 ± 5.85 mg/L
Vancomycin concentration, mean ± standard deviation ([3]; model-building dataset Total = 386, 521 concentrations): 8.52 ± 5.93 mg/L
CLage>2, bootstrap median [4, 8]: 2.56 L/h
CLage≤2, bootstrap median [4, 8]: 1.97 L/h
Vd, bootstrap median [4, 8]: 22.2 L
CLp, typical value of apparent clearance ([4]; candidate Model I, 3/4 allometric model): 2.09 (4.3) L/h
Vp, typical value of apparent volume of distribution ([4]; candidate Model I): 40.9 (14.6) L
CLp, typical value of apparent clearance ([4]; candidate Model II, allometric model): 2.10 (4.0) L/h
Vp, typical value of apparent volume of distribution ([4]; candidate Model II): 23.8 (28.2) L
Vp, typical value of apparent volume of distribution ([4]; candidate Model III): 40.8 (14.5) L
Vp, typical value of apparent volume of distribution ([4]; candidate Model IV): 23.0 (25.5) L
CLp, typical value of apparent clearance ([4]; candidate Model V, BW-dependent exponent model): 2.30 (5.0) L/h
Vp, typical value of apparent volume of distribution ([4]; candidate Model V): 23.3 (27.1) L
CLp, typical value of apparent clearance ([4]; candidate Model VI, age-dependent exponent model): 2.42 (5.5) L/h
Vp, typical value of apparent volume of distribution ([4]; candidate Model VI): 22.7 (25.5) L
weight-adjusted typical CL ([4]; final PPK model, age >2 years old): 3.6 mL/min/kg
CLage>2, final model estimate ([4]; final PPK model, age >2 years old, typical value at BW 12 kg and CLcr 75 mL/min): 2.59 L/h
weight-adjusted typical CL ([4]; final PPK model, age ≤2 years old): 2.75 mL/min/kg
CLage≤2, final model estimate ([4]; final PPK model, age ≤2 years old, typical value at BW 12 kg and CLcr 75 mL/min): 1.98 L/h
Vd, final model estimate ([4]; final PPK model, typical value at BW 12 kg): 22.4 L
MIC values of clinical isolates [7]: ≤ 1 µg/mL
Compound: CN[C@H](CC(C)C)C(=O)N[C@H]1C(=O)N[C@@H](CC(N)=O)C(=O)N[C@H]2C(=O)N[C@H]3C(=O)N[C@H](C(=O)N[C@H](C(=O)O)c4cc(O)cc(O)c4-c4cc3ccc4O)[C@H](O)c3ccc(c(Cl)c3)Oc3cc2cc(c3O[C@@H]2O[C@H](CO)[C@@H](O)[C@H](O)[C@H]2O[C@H]2C[C@](C)(N)[C@H](O)[C@H](C)O2)Oc2ccc(cc2Cl)[C@H]1O [vancomycin]
AUC0-24 threshold for predicting vancomycin-associated nephrotoxicity ([1]; Chinese children): < 537 µg·h/mL
AUC0-24 threshold for predicting vancomycin-associated nephrotoxicity ([1]; Chinese neonates): < 480 µg·h/mL
microbiological eradication rate ([2]; multicenter study, Chinese children, 37.79 ± 11.31 mg/kg/day): > 80%
overall clinical effective rate ([2]; pediatric patients with median AUC/MIC between 200 and 300, ref 40 (Shen et al.)): 92.6%
treatment failure rate [5]: 16%
fraction eliminated by the renal system and excreted in the urine as a prototype ([6]; after intravenous administration): approximately 90%
inter-individual variability (IIV) of clearance (CL) ([6]; reported to reach as high as): ≤ 99.2%
known range of weight-adjusted CL in pediatric patients ([6]; summarized in a systematic review): 0.258 to 4.25 mL/min/kg
